Data from ChEMBL document CHEMBL1201862, “PubChem BioAssay data set” (2004).
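Cells were grown in 96-well plates and exposed to each compound for 48 hours at five concentrations; endpoints were interpolated linearly between bracketing concentrations, or set to the highest concentration if not reached. GI50: concentration for 50% inhibition of growth.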 The source made the active and inactive calls. No stated cut-off is given here; in the data, active = GI50 up to about 1.1 µM and inactive = higher.

What was measured:
Assay in all cases: inhibition of tumour cell growth, NCI panel, 48 h
CCRF-CEM = system: CCRF-CEM
DU-145 = system: DU-145
HCC 2998 = system: HCC 2998
HCT-15 = system: HCT-15
HOP-92 = system: HOP-92
Hs-578T = system: Hs-578T
LOX IMVI = system: LOX IMVI
MDA-MB-231 = system: MDA-MB-231
MOLT-4 = system: MOLT-4
NCI-H460 = system: NCI-H460
NCI-H522 = system: NCI-H522
OVCAR-5 = system: OVCAR-5
PC-3 = system: PC-3
RPMI-8226 = system: RPMI-8226
RXF 393 = system: RXF 393
SF-268 = system: SF-268
SN12C = system: SN12C
TK-10 = system: TK-10
UACC-257 = system: UACC-257

| Structure (SMILES) | GI50 (CCRF-CEM) | GI50 (DU-145) | GI50 (HCC 2998) | GI50 (HCT-15) | GI50 (HOP-92) | GI50 (Hs-578T) | GI50 (LOX IMVI) | GI50 (MDA-MB-231) | GI50 (MOLT-4) | GI50 (NCI-H460) | GI50 (NCI-H522) | GI50 (OVCAR-5) | GI50 (PC-3) | GI50 (RPMI-8226) | GI50 (RXF 393) | GI50 (SF-268) | GI50 (SN12C) | GI50 (TK-10) | GI50 (UACC-257) |
| --- | --- | --- | --- | --- | --- | --- | --- | --- | --- | --- | --- | --- | --- | --- | --- | --- | --- | --- | --- |
| CS(=O)(=O)Nc1ccc2c(c1)N(S(C)(=O)=O)CC2COS(C)(=O)=O (centres undefined) | 35.8 µM (inactive) | 58.9 µM (inactive) | > 100 µM (inactive) | > 100 µM | 33.2 µM (inactive) | 94.2 µM (inactive) | 70 µM (inactive) | > 100 µM (inactive) | 32.5 µM (inactive) | 90.8 µM (inactive) | 19.7 µM (inactive) | 40.5 µM (inactive) | > 100 µM (inactive) | 25.8 µM (inactive) | 18.7 µM (inactive) | > 10 µM (inactive) | > 100 µM (inactive) | 36.8 µM (inactive) | > 100 µM (inactive) |
| CCOC(=O)/C(=C\c1ccc(CO)o1)P(=O)(OCC)OCC |  | 41.9 µM (inactive) | > 100 µM (inactive) | 18.4 µM | 23.7 µM (inactive) | 36.1 µM (inactive) | 18.5 µM (inactive) | 31.7 µM (inactive) | 56.8 µM (inactive) | 17 µM (inactive) | 3.88 µM (inactive) | 50 µM (inactive) | 5.43 µM (inactive) | 40.7 µM (inactive) | 34.3 µM (inactive) | 28.2 µM (inactive) | 30.5 µM (inactive) | 49.5 µM (inactive) | 44.6 µM (inactive) |
| Cc1ccnc2c1ccc1nc3ccccc3n12 | > 100 µM (inactive) | > 100 µM (inactive) | > 100 µM (inactive) |  | 85.1 µM (inactive) | 25.8 µM (inactive) | > 100 µM (inactive) | 54.7 µM (inactive) | > 100 µM (inactive) | 45.6 µM (inactive) | 17.9 µM (inactive) | > 100 µM (inactive) | > 100 µM (inactive) | > 100 µM (inactive) | 56.2 µM (inactive) | 25.1 µM (inactive) | 61.5 µM (inactive) | > 100 µM (inactive) | > 100 µM (inactive) |
| CC1CCC2(O)C3(C)CC4(O)OC2(C1O)C1(O)C3(O)C(OC(=O)c2ccc[nH]2)C(O)(C(C)C)C41C (centres undefined) | > 100 µM (inactive) | > 100 µM (inactive) | > 100 µM (inactive) | > 100 µM | > 100 µM (inactive) | > 100 µM (inactive) | > 100 µM (inactive) | > 100 µM (inactive) |  | > 100 µM (inactive) | > 100 µM (inactive) | > 100 µM (inactive) | > 100 µM (inactive) | > 100 µM (inactive) | > 100 µM (inactive) | > 31.6 µM (inactive) | > 100 µM (inactive) | > 100 µM (inactive) | > 100 µM (inactive) |
| Fc1ccc(C(OCCN2CCC3CCC(C2)N3C/C=C/c2ccco2)c2ccc(F)cc2)cc1 (centres undefined) | 0.0459 µM (active) | 15.7 µM (inactive) | 4.94 µM (inactive) | 5.09 µM | 4.62 µM (inactive) | 14.7 µM (inactive) | 11.2 µM (inactive) | 11.1 µM (inactive) | 4.78 µM (inactive) | 7.11 µM (inactive) | 7.23 µM (inactive) |  | 8.2 µM (inactive) | 4.2 µM (inactive) | 4.4 µM (inactive) | 12.5 µM (inactive) | 11.4 µM (inactive) | 6.93 µM (inactive) | 4.44 µM (inactive) |
| c1ccc2c(c1)-c1ccccc1C2NC1=NCCO1 | 32.6 µM (inactive) | 52.6 µM (inactive) | 15.6 µM (inactive) | 9.4 µM | 13.9 µM (inactive) | 55 µM (inactive) | 20.5 µM (inactive) | 24.3 µM (inactive) | 29.4 µM (inactive) | 14 µM (inactive) | 25.6 µM (inactive) | 38.8 µM (inactive) | 20.5 µM (inactive) | 28.4 µM (inactive) | 42.2 µM (inactive) | 30 µM (inactive) | 33.7 µM (inactive) | 28.1 µM (inactive) |  |
